Source: patent publication US20080103127A1, “METHODS FOR TREATING DISRUPTIVE BEHAVIOR DISORDERS” (priority 2006, published 2008)

Assays:
submissive rats [1] = test: Reduction of Submissive Behavior Model (RSBM) of depression, dominant-submissive rat food competition test; format: in vivo, Sprague-Dawley rats
From the text: In this study, the effects of COMPOUND #7 on dominant or submissive behavior in pairs of rats competing for food are examined. It has been shown that anti-manic drugs, including anticonvulsants, decrease dominance and antidepressant drugs reduce submissiveness. This model uses dominant behavior as a model of mania and submissive behavior as a model of depression. The dominance and submissiveness is defined in a competition test and measured as the relative success of two food-restricted rats to gain access to a feeder. Rats are randomly paired and placed in an apparatus allowing them to compete for a food reward. The dominant-submissive relationship develops over a 2-week period. The submissive or dominant animals in pairs selected after 2 weeks of training were treated orally […] (b.i.d.) with COMPOUND #7 at 3 or 30 mg/kg for 5 weeks. The partner of the drug-treated animal was treated with vehicle.
The objective of this study was to determine if COMPOUND #7 is active in the Reduction of Submissive Behavior Model (RSBM) of depression and the Reduction of Dominant Behavior Model (RDBM) of mania. Measurements were made at two doses (3 and 30 mg/kg) after oral twice a day (b.i.d.) administration. The effect of the drug in the RSBM was compared to the effect of fluoxetine (10 mg/kg) and vehicle (0.5% methylcellulose). The effect of the drug in the RDBM was compared with the effect of lithium (100 mg/kg) and vehicle (0.5% methylcellulose). The endpoints measured were the development of a significant reduction of submissive or dominant behavior and its time of onset.
The DSR developed by two rats competing for food uses the apparatus in FIG. 1. The methodology and equipment are described in several publications. (See, Malatynska E, Goldenberg R, Shuck L, Haque A, Zamecki P, Crites G, Schindler N, Knapp R J. Reduction of submissive behavior in rats: a test for antidepressant drug activity. Pharmacology 2002; 64:8; Malatynska E, Rapp R, Crites G. Dominant behavior measured in a competition test as a model of mania. In: International Behavioral Neuroscience Society Meeting, ed. IBNSCapri, Italy, 2002, p 26.; Bonnet U. Moclobemide: therapeutic use and clinical studies. CNS Drug Rev 2003; 9:97; Danysz W, Plaznik A, Kostowski W, Malatynska E, Jarbe T U, Hiltunen A J, Archer T. Comparison of desipramine, amitriptyline, zimeldine and alaproclate in six animal models used to investigate antidepressant drugs. Pharmacol Toxicol 1988; 62:42; Knapp R J, Goldenberg R, Shuck C, Cecil A, Watkins J, Miller C, Crites G, Malatynska E. Antidepressant activity of memory-enhancing drugs in the reduction of submissive behavior model. Eur J Pharmacol 2002; 440:27; Kostowski W, Malatynska E, Plaznik A, Dyr W, Danysz W. Comparative studies on antidepressant action of alprazolam in different animal models. Pol J Pharmacol Pharm 1986; 38, 471; Malatynska E, De Leon I, Allen D, Yamamura Hi. Effects of amitriptyline on GABA-stimulated ^36Cl^− uptake in relation to a behavioral model of depression. Brain Res Bull 1995; 37:53; Malatynska E, Kostowski W. The effect of antidepressant drugs on dominance behavior in rats competing for food. Pol J Pharmacol Pharm 1984; 36:531; Malatynska E, Kostowski W. Desipramine antagonizes clonidine-induced suppression of dominance in rats: possible involvement of amygdaloid nuclei. Pol J Pharmacol Pharm 1988; 40:357).
In the experiments described in this report Sprague-Dawley rats weighing 160 to 180 g were used. Testing for the development of a DSR between paired rats begins with the random assignment of rats into pairs. Rats from pairs are housed separately between test sessions with other animals in groups of four. The animals are food-deprived overnight with free access to water.
The test involves placing each member of a pair in opposite chambers of the testing apparatus. These chambers are connected through a narrow tunnel with a small container of sweetened milk at the center. […]

dominant rats = settings: administered to dominant rats; cited from earlier work
submissive rats [2] = settings: cited from earlier work; for submissive behavior: treatment of the submissive subject for 3 weeks

SMILES | competitive behavior of dominant rats (dominant rats) | submissive behavior (submissive rats [2]) | further results
CC(N)Cc1ccccc1 (stereo not shown) [amphetamine, reference compound] | – | – | effect of treatment of submissive rats (psychostimulant) (submissive rats [1]; unpublished observation): ineffective
NC(=O)N1c2ccccc2C=Cc2ccccc21 [carbamazepine] | significantly reduced competitive behavior | – | –
Clc1cccc(Cl)c1N=C1NCCN1 [clonidine] | significantly reduced competitive behavior | – | –
CNCCCN1c2ccccc2CCc2ccccc21 [desipramine] | – | reduced submissive behavior | effect on submissive behavior after cessation of treatment (submissive rats [2]; after cessation of treatment): attenuated
CN1C(=O)CN=C(c2ccccc2)c2cc(Cl)ccc21 [diazepam] | – | – | effect of treatment of submissive rats (anxiolytic) (submissive rats [2]; Pharmacology 2002, 64:8): ineffective
CNCCC(Oc1ccc(C(F)(F)F)cc1)c1ccccc1 (stereo not shown) [fluoxetine, reference compound] | – | reduced submissive behavior | onset of significant effect on submissive rats (time of treatment) (submissive rats [1]; 10 mg/kg i.p. once a day, previous experimental set): 3 weeks
CN(C)CCCN1c2ccccc2CCc2ccccc21 [imipramine] | – | reduced submissive behavior | –
CCCC(CCC)C(=O)[O-].[Na+] [sodium valproate] | significantly reduced competitive behavior | – | –
